Series [1] has as its system Propionibacterium acnes ATCC 6919. As to the kind of experiment: microbe, parasite or virus in culture. The class given is cell-based. On the procedure: (§1) The antimicrobial activity of FM-CATH was measured using two-fold dilution method as reported previously by us ([Ye et al., 2020]). Microorganisms bought from Guangdong Institute of Microbiology were cultured in Muller-Hinton (MH) broth at 37°C to exponential phase and subsequently diluted with fresh MH broth to reach 10^6 CFU/ml of density. An equal volume of microbial inoculums in 96-well plates was incubated with different concentrations of FM-CATH at 37°C for 14 h. The absorbance at 600 nm was measured by a microplate spectrophotometer (Infinite M1000 Pro, Tecan Company, Switzerland) to calculate the minimal inhibitory concentration (MIC) values. […] Ampicillin and polymyxin B were used as positive controls.

Series [2] relates to Bacillus subtilis CMCC 63501. As to the kind of experiment: microbe, parasite or virus in culture. The class given is cell-based. The protocol:
as §1

For series [3], the system named is Candida albicans ATCC 10231. Put plainly: microbe, parasite or virus in culture. Type of series: cell-based. The protocol: as §1
For series [4], the system named is Pseudomonas aeruginosa ATCC 27853. As to the kind of experiment: microbe, parasite or virus in culture. The class given is cell-based. The protocol:
as §1

The next series concerns HepG2. As to the kind of experiment: Cytotoxicity by MTT. The note with it: HepG2, 24 h, 2.5-40 μM tested, n = 3; read-out: IC50 (proliferation, MTT). Type of series: cell-based.
The test system of series [5] is Escherichia coli ATCC 25922. The class given is cell-based. The note with it: ATCC 25922, 14 h. The protocol:
The antimicrobial activity of FM-CATH was measured using two-fold dilution method as reported previously by us ([Ye et al., 2020]). Microorganisms bought from Guangdong Institute of Microbiology were cultured in Muller-Hinton (MH) broth at 37°C to exponential phase and subsequently diluted with fresh MH broth to reach 10^6 CFU/ml of density. An equal volume of microbial inoculums in 96-well plates was incubated with different concentrations of FM-CATH at 37°C for 14 h. The absorbance at 600 nm was measured by a microplate spectrophotometer (Infinite M1000 Pro, Tecan Company, Switzerland) to calculate the minimal inhibitory concentration (MIC) values.

The next series deals with mouse erythrocytes. As to conditions: 40 μM, 2% mouse erythrocyte suspension in TBS, room temperature, 2 h, absorbance 540 nm.
The next series has as its system A549. As to the kind of experiment: Cytotoxicity by MTT. Type of series: cell-based. The note with it: A549, 24 h, 2.5-40 μM tested, n = 3; read-out: IC50 (proliferation, MTT).
The subject of the next series is MDA-MB-231. The note with it: MDA-MB-231, 24 h, 2.5-40 μM.
For a further series, the system named is MDCK. Put plainly: Cytotoxicity by MTT. As to conditions: 24 h, 2.5-40 μM tested, n = 3, read-out: IC50 (proliferation, MTT). Type of series: cell-based.
Another series relates to MH-S. As to conditions: 24 h, 2.5-40 μM.
The subject of series [6] is Staphylococcus aureus ATCC 25923. Put plainly: Antimicrobial assay (MIC, two-fold dilution). Type of series: cell-based. The note with it: MH broth, 10^6 CFU/ml, 37°C, 14 h, absorbance 600 nm. On the procedure:
as §1

Series [7] can be described thus: Isothermal titration calorimetry, binding to LPS. Details: species or system Escherichia coli O55:B5. The note with it: ITC, 1 mM peptide titrated into 50 μM LPS, 50 mM PBS pH 7.2, 25°C, single-site model. The protocol:
ITC assay was carried out to investigate the thermodynamics of interactions between peptides and LPS or LTA using MicroCal PEAQ-ITC (Malvern; United Kingdom). 50 mM of PBS (pH 7.2) was used to prepare stock solutions of peptide, LPS, and LTA. […] In LTA binding experiment, 100 μM LTA in the syringe was titrated into 280 μL of 50 μM FM-CATH in the cell with the condition described above. Instrument was operated in high feedback mode. After the heats derived from dilution were subtracted, the equilibrium disassociation constant (K D) and the enthalpy change (ΔH) were analyzed by fitting to a single-site binding model using the MicroCal Origin software. The Gibb’s free energy change (ΔG) and entropy change (ΔS) were obtained from the basic thermodynamic equations, respectively.

[8] abbreviates: two-fold dilution, MH broth, 10^6 CFU/ml, 37°C, 14 h, absorbance 600 nm.

pIC50, pKd: −log10 of the molar value. No end group written: not given here. Where only a bound is given, the exact number is not on record here.

Description for A549: (§2) Three tumor cell lines (A549, HepG2, and MDA-MB-231) and two normal mammalian cell lines (MH-S and MDCK) were seeded in 96-well plates at a density of 5,000 cells per well. […] The supernatant was removed and DMSO was added before the absorbance at 490 nm was measured.
Description for HepG2: as §2
Description for MDA-MB-231: as §2
Description for MDCK: as §2
Description for MH-S: as §2
Description for mouse erythrocytes: Hemolytic assay was carried out with fresh blood from mouse heart as reported in our previous article with minor modification ([Chai et al., 2021]). […] 1% Triton X-100 and PBS were applied as the positive and negative control, respectively. The absorbance of the supernatant at 540 nm was measured with a microplate spectrophotometer. The hemolysis rate was calculated using the following formula: percentage hemolysis = (ODsample—ODPBS)/(ODTriton—ODPBS) × 100%.

Consider `CC1(C)S[C@@H]2[C@H](NC(=O)[C@H](N)c3ccccc3)C(=O)N2[C@H]1C(=O)O` [Ampicillin], for which the MIC in [1] (Cutibacterium acnes, ATCC6919, 14 h) was over 100 µM; in series [2] (Bacillus subtilis, CMCC63501, 14 h) it was over 100 µM; in series [3] (Candida albicans, ATCC10231, 14 h), over 100 µM; in series [4] (Pseudomonas aeruginosa, ATCC27853, 14 h), over 100 µM.

On to LKTKALNKLKQKLQAVGNLIGSVIKG [FM-CATH], for which the values for the pIC50 in the series on HepG2, in the series on A549 and in the series on MDCK were 4.48, 4.93 and 3.47, respectively. Further, the MIC in series [5] was 6.25 µM; in series [1] (ATCC 6919, 14 h) it was 6.25 µM; in series [2] (CMCC 63501, 14 h) it was 12.5 µM; in series [3] (ATCC 10231, 14 h), 6.25 µM; in [4] (ATCC 27853, 14 h) it was 50 µM. Further, the hemolytic activity result in the series on mouse erythrocytes is “almost no hemolytic activity”. Also, the “cytotoxicity (MTT)” value in the series on MDA-MB-231 and in the series on MH-S was “very low cytotoxicity” in each case.

With Polymyxin B, the MIC in [6] is over 100 µM; in series [1] (setting [8]) it was 6.25 µM; in [2] (setting [8]), 25 µM; in [3] (setting [8]), 25 µM; in [4] (setting [8]), 50 µM. The same compound had a pKd in [7] of 6.38. Also, the “∆H” value in series [7] is 5.9 ± 0.156 kcal/mol.

For the origin of these results see publication PMC8415707 (Frontiers in Pharmacology, 2021).
